Experimental data from patent US11505592B2, “Diagnosis and therapy of multiple sclerosis” (PRINDEX S.R.L., priority 2015, dated 2022).

How the values were obtained:
CTRL sera = assay: PEPSCAN-based ELISA, binding of control (CTRL) sera to library peptides; set-up: species or system human; settings: ELISA binding value, CTRLs n = 10
Source text: (§1) The linear and CLIPS peptides are synthesized based on the amino acid sequence of the target protein using standard Fmoc-chemistry and deprotected using […] with scavengers. The constrained peptides are synthesized on chemical scaffolds in order to reconstruct conformational epitopes, using Chemically Linked Peptides on Scaffolds (CLIPS) technology (Timmerman et al. (2007). For example, the single looped peptides are synthesized containing a dicysteine, which was cyclized by treating with alpha, alpha′-dibromoxylene and the size of the loop is varied by introducing cysteine residues at variable spacing. If other cysteines besides the newly introduced cysteines are present, they are replaced by alanine. The side-chains of the multiple cysteines in the peptides are coupled to CLIPS templates by reacting onto credit-card format polypropylene PEPSCAN cards (455 peptide formats/card) with a 0.5 mM solution of CLIPS template such as 1,3-bis (bromomethyl) benzene in ammonium bicarbonate (20 mM, pH 7.9)/acetonitrile (1:1(v/v)). The cards are gently shaken in the solution for 30 to 60 minutes while completely covered in solution. Finally, the cards are washed extensively with excess of H2O and sonicated in distrupt-buffer containing 1 percent SDS/0.1 percent beta-mercaptoethanol in PBS (pH 7.2) at 70° C. for 30 minutes, followed by sonication in H2O for another 45 minutes.
(§2) The binding of antibody to each peptide is tested in a PEPSCAN-based ELISA. The 455-well credit card format polypropylene cards containing the covalently linked peptides are incubated with primary antibody solution for example consisting of 1/1000 diluted serum in blocking solution, for example 4% horse serum, 5% ovalbumin (w/v) in PBS/1% Tween. After washing, the peptides are incubated with a 1/1000 dilution of antibody peroxidase conjugate for one hour at 25° C. After washing, the peroxidase substrate 2,2′-azino-di-3-ethylbenzthiazoline sulfonate (ABTS) and 2 microlitres of 3 percent H2O2 are added. After one hour, the color development are measured. The color development are quantified with a charge coupled device (CCD)-camera and an image processing system (Slootstra et al., 1996).
(§3) The raw data are optical values obtained by a CCD-camera calibrated to export absorption values compatible with a standard 96-well plate ELISA-reader. First the CCD-camera makes a picture of the card before peroxidase coloring and then again a picture after the peroxidase coloring. These two pictures are substracted from each other yielding a binding value for each peptide.
(§4) All peptides have been synthesized in a peptide array format and the binding of 20 different sera to all peptide libraries were measured in an ELISA based set up following the procedure described in detail in the method section “Peptide synthesis and screening assays”. In particular 2 sets of experiments were performed on the 2 libraries by using 2 different dilutions of the human patients sera. In the first set of experiment the 20 sera were used at 1:2500 dilutions, while in the second experiment the dilution of the sera was 1:1000. The binding of the different sera to all peptides was quantified and analyzed in detail (Tables 1 and 2, FIGS. 15A, B, C, D and […]

MS sera = assay: PEPSCAN-based ELISA, binding of MS sera to library peptides; set-up: species or system human; settings: ELISA binding value, MS sera n = 9
Source text: as §1, §2, §3, §4

Sequence	MEAN CTRL (CTRL sera; 5HT2A receptor library)	MEAN MS (MS sera; 5HT2A receptor library)	MEAN CTRL (CTRL sera; NOX2 library)	MEAN MS (MS sera; NOX2 library)
CLQDDSKVFKEGSSCMDILSEENTSLSSC [Peptide 7]	233.80	434.67	–	–
CSYLNFARKRIKNPEGCITVSEQKISEWGKIKC [SEQ ID NO: 122]	–	–	457.4	796.222
CFNVEWSVNARVNNSDCVSEQKISEWGKIKESC [SEQ ID NO: 141]	–	–	447.325	784.944
CSLSSTTNSLMQLNCMDILSEENTSLSSC [Peptide 18]	188.90	323.72	–	–
CNFARKRIKNPEGGLYCGDRQNESYLNFARKRC [SEQ ID NO: 117]	–	–	425.15	800.500
CLTILYGYRWPLPSCMDILSEENTSLSSC [Peptide 2]	228.85	421.56	–	–
CSEQKISEWGKIKESPC [SEQ ID NO: 114]	–	–	271.75	501.167
CLYGYRWPLPSKLSCKESSNEDVIGALLC [Peptide 20]	390.93	689.03	–	–
CSYLNFARKRIKNPEGCNFARKRIKNPEGGLYC [SEQ ID NO: 138]	–	–	371.8	659.944
GDRQNESYLNAGRKR [SEQ ID NO: 68]	–	–	294.2	547.278
CQNESYLNFARKRIKNCVSEQKISEWGKIKESC [SEQ ID NO: 111]	–	–	419.075	747.139
CSYLNFARKRIKNPEGCQNESYLNFARKRIKNC [SEQ ID NO: 61]	–	–	398.9	778.278
CQTAESLAVHNITVSECVSEQKISEWGKIKESC [SEQ ID NO: 139]	–	–	339.65	590.111
CNFARKRIKNPEGGLYCSYLNFARKRIKNPEGC [SEQ ID NO: 97]	–	–	416.6	752.333
ESYLNFARK [SEQ ID NO: 107]	–	–	296.3	535.667
CVSEQKISEWGKIKESCTVSEQKISEWGKIKEC [SEQ ID NO: 142]	–	–	446.5	760.333

Sequence	MEAN CTRL (CTRL sera; 5HT2A receptor library)	MEAN MS (MS sera; 5HT2A receptor library)	MEAN CTRL (CTRL sera; NOX2 library)	MEAN MS (MS sera; NOX2 library)
WGKIKECPI [SEQ ID NO: 116]	–	–	303.25	501.389
TVDSENRTNLAAEGC [Peptide 23]	348.10	587.33	–	–
CLQDDSKVFKEGSSCKESSNEDVIGALLC [Peptide 48]	373.15	632.28	–	–
NFARKRIKN [SEQ ID NO: 58]	–	–	288.95	613.833
CSSLSLLHLQEKNWCMDILSEENTSLSSC [Peptide 45]	198.50	318.17	–	–
CESLAVHNITVSEQKICGDRQNESYLNFARKRC [SEQ ID NO: 136]	–	–	409.15	730.278
CLYGYRWPLPSKLSCSGEANTSDAFNWTC [Peptide 43]	344.80	649.67	–	–
CVFKEGSSLLADDNCKESSNEDVIGALLC [Peptide 38]	348.13	594.61	–	–
TILYGYRWPLPSKLC [Peptide 29]	378.20	651.50	–	–
CNITVSEQKISEWGKICSYLNFARKRIKNPEGC [SEQ ID NO: 99]	–	–	397.7	738.444
CHGAERIVRGQTAESLCNFARKRIKNPEGGLYC [SEQ ID NO: 89]	–	–	404.6	733.889
CTRLYSNDFNSGEACKESSNEDVIGALLC [Peptide 42]	333.60	561.03	–	–
KISEWGKIK [SEQ ID NO: 83]	–	–	223.9	404.500
SYLNFARKRIAAPEG [SEQ ID NO: 71]	–	–	259.75	472.000
CVRGQTAESLAVHNITCSLAVHNITVSEQKISC [SEQ ID NO: 156]	–	–	304.75	546.444
CNSLMQLNDDTRLYCYSNDFNSGEANTSC [Peptide 34]	268.10	459.72	–	–
